Reference: ChEMBL document CHEMBL5532646, “Discovery of 4-(N-dithiobenzyl piperazine)-1,8-naphthalimide as a potent multi-target antitumor agent with good efficacy, limited toxicity, and low resistance” (Eur J Med Chem, 2024)
The source made the active and inactive calls. The calls are words filed in the database; no cut-off is given here.

Assays:
[1] = test system: SK-OV-3; assay: Antiproliferative activity against human SK-OV-3 cells incubated for 48 hrs by MTT assay; assay type: functional, cell-based; settings: SK-OV-3, 48 h
[2] = test system: T-24; assay: Antiproliferative activity against human T24 cells xenografted in nude mouse model assessed as tumor inhibition rate at 15 mg/kg, ip administered once every two days for 21 days relative to control; assay type: functional; settings: T-24, 504 h, time 21 day
[3] = Toxicity in nude mouse model xenografted with human T24 cells assessed as pathological change in heart at 15 mg/kg, ip administered once every two days for 21 days; assay type: organism-based, T-24; settings: in vivo, 504 h, time 21 day
[4] = Toxicity in nude mouse model xenografted with human T24 cells assessed as pathological change in liver at 15 mg/kg, ip administered once every two days for 21 days; assay type: organism-based, T-24; settings: in vivo, 504 h, time 21 day
[5] = test system: T-24; assay: Antitumor activity against human T24 cells assessed as effect on PI3K-AKT signaling pathway at 5 uM incubated for 24 hrs by TMT/iTRAQ analysis; assay type: functional, cell-based
[6] = test system: T-24; assay: Effect on cell cycle pathway in human T24 cells at 5 uM incubated for 24 hrs by KEGG analysis; assay type: functional, cell-based
[7] = test system: T-24; assay: Induction of ferroptosis in human T24 cells assessed as increase in ROS level at 5 uM incubated for 24 hrs by DCFH-DA probe based analysis; assay type: functional, cell-based
[8] = test system: T-24; assay: Induction of ferroptosis in human T24 cells assessed as reduction in mitochondrial cristae at 5 uM incubated for 24 hrs by TEM analysis; assay type: functional, cell-based
[9] = test system: T-24; assay: Induction of autophagy in human T24 cells assessed as increase in LC-3 level at 2 to 8 uM incubated for 24 hrs by Western blot analysis; assay type: functional, cell-based; settings: dose 2-8 µM
[10] = test system: T-24; assay: Induction of autophagy in human T24 cells assessed as decrease in P62 level at 2 to 8 uM incubated for 24 hrs by Western blot analysis; assay type: functional, cell-based; settings: dose 2-8 µM
[11] = test system: T-24; assay: Downregulation of AKT1 level in human T24 cells at 2 to 8 uM incubated for 24 hrs by Western blot analysis; assay type: functional, cell-based; settings: dose 2-8 µM
[12] = test system: T-24; assay: Upregulation of ERK1/2 phosphorylation in human T24 cells incubated for 24 hrs by Western blot analysis; assay type: functional, cell-based; settings: dose 2-8 µM
[13] = test system: T-24; assay: Anti-migratory activity against human T24 cells at 5 uM by wound healing assay; assay type: functional, cell-based; settings: time <= 48.0 hrs, TDE = time-dependent effect
[14] = test system: T-24; assay: Inhibition of cell proliferation of human T24 cells at 1 to 5 uM incubated for 7 days by colony formation assay; assay type: functional, cell-based; settings: dose 1-5 µM, time 7.0 day
[15] = test system: T-24; assay: Induction of apoptosis in human T24 cells assessed as increase in cleaved caspase-3 level at 2 to 8 uM incubated for 24 hrs by Western blot analysis; assay type: functional, cell-based; settings: dose 2-8 µM
[16] = test system: T-24; assay: Induction of apoptosis in human T24 cells assessed as increase in Bax level at 2 to 8 uM incubated for 24 hrs by Western blot analysis; assay type: functional, cell-based; settings: dose 2-8 µM
[17] = test system: T-24; assay: Induction of apoptosis in human T24 cells assessed as increase in Bak level at 2 to 8 uM incubated for 24 hrs by Western blot analysis; assay type: functional, cell-based; settings: dose 2-8 µM
[18] = test system: T-24; assay: Induction of apoptosis in human T24 cells assessed as increase in Bad level at 2 to 8 uM incubated for 24 hrs by Western blot analysis; assay type: functional, cell-based; settings: dose 2-8 µM
[19] = test system: T-24; assay: Induction of cell cycle arrest at G2/M phase in human T24 cells at 8 uM incubated for 24 hrs by flow cytometry (reference value: 12.30 %); assay type: functional
[20] = test system: T-24; assay: Induction of cell cycle arrest at S phase in human T24 cells at 8 uM incubated for 24 hrs by flow cytometry (reference value: 12.39 %); assay type: functional
[21] = test system: T-24; assay: Induction of cell cycle arrest in human T24 cells assessed as increase in p21 level at 2 to 8 uM by Western blot analysis; assay type: functional, cell-based; settings: dose 2-8 µM
[22] = test system: T-24; assay: Induction of cell cycle arrest in human T24 cells assessed as decrease in MCM5 level at 2 to 5 uM by Western blot analysis; assay type: functional, cell-based; settings: dose 2-5 µM

IC50 [1]: 1430 nM
Structure (SMILES): CN(C)CCN1C(=O)c2cccc3c(N4CCN(C(=S)SCc5ccccc5)CC4)ccc(c23)C1=O
inhibition in vivo at 15 mg/kg [2]: 56.3%
Activity [3]: Non-Toxic
Activity [4]: Non-Toxic
Activity [5]: Active
Activity [6]: Active
Activity [7]: Active
Activity [8]: Active
Activity [9]: Active
Activity [10]: Active
Activity [11]: Active
Activity [12]: Dose-Dependent Effect
Activity [13]: Tde
inhibition [14]: Active
Activity [15]: Active
Activity [16]: Active
Activity [17]: Active
Activity [18]: Active
Activity [19]: 16.61%
Activity [20]: 13.21%
Activity [21]: Active
Activity [22]: Active
